Data as given in US9090583B2, “Benzopyrone estrogen receptor regulator” (BEIJING SHENOGEN PHARMA GROUP LTD., priority 2010, dated 2015).
pIC50: −log10 of the molar value. In brackets after ≈: the same amount, converted by molar mass.

Experiments:
Type in all cases: cell-based
[1] = test system: MDA-MB-231 cells; assay: CellTiter-Glo Luminescent Cell Viability Assay on ER-negative breast cancer MDA-MB-231 cells; settings: Homo sapiens, MDA-MB-231, 72 h, average ± standard deviation when tested more than 3 times, read-out: Inhibition of the viability of breast cancer cells, IC50
How it was run: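 Cells seeded at 6×10^3 per well in DMEM with 10% FCS and exposed 72 h to compound at 0 to 100 μM (twelve concentrations, DMSO vehicle). Viability measured by CellTiter-Glo luminescence.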

[2] = test system: Hep3B2.1-7 cells; assay: MTT assay, in vitro growth of liver cancer Hep3B2.1-7 cells; settings: 72 hours, read-out: Inhibition on liver cancer cells, IC50
[3] = molecular target: T1, ER-α36 (Homo sapiens, UniProt P03372); assay: Regulation of ER-α36 protein expression in HEC-1A cells (Western blot); settings: serum-depleted HEC-1A cells; 1, 10, 50 and 100 nM; 24 and 48 hours; effect above the concentration of 50 nM
T1 construct: endogenous in cells; host or cells: HEC-1A human endometrial cancer cells
T1 sequence (P03372 1-310 isoform P03372-4): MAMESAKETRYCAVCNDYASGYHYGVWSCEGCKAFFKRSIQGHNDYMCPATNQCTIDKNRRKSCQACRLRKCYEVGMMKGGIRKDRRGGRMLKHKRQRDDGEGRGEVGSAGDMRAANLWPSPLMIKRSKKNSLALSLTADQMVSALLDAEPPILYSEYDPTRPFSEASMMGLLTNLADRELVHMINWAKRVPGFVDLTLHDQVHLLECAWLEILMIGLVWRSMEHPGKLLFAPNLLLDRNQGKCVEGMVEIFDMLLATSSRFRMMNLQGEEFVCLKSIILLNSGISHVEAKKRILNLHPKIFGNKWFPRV
Experimental: Taking endometrial cancer HEC-1A cells as an example, serum-depleted HEC-1A cells were treated with compounds at concentrations of 1, 10, 50 and 100 nM for 24 hours and 48 hours. The treated cells were washed with PBS and lysed with lysis buffer (a mixture of 1*PBS (pH7.4), 1% NP-40, 0.7 mMEDTA, and protease inhibitor from Roche). The lysates were boiled for 5 minutes in a SDS gel loading buffer (25 mM Tris-Cl pH 6.8; 10% SDS; 2% glycerol; 20% β-mercaptoethanol; 0.01% bromophenol blue) and separated on a 10% SDS-PAGE gel. After electrophoresis, the proteins were transferred onto PVDF membrane (Millipore Transfer Membrane). The membrane was probed with Rabbit anti-ER36 antibody which is specific to 20 amino acid polypeptides at C-terminus of ER-α36. Then the membrane was incubated with an HRP-conjugated secondary antibody and visualized with ECL detection reagents.

pIC50 [1]: 5.79 | IC50 [2]: 0.0144 µg/mL (≈ 0.0303 µM) | expression of ER-36 in cells [3]: dramatically reduced
Structure (SMILES): CC(C)=CCc1c(O)c(CC=C(C)C)c2oc(-c3ccc(C(F)(F)F)cc3)c(O)c(=O)c2c1O [Compound 98, 2-(4-trifluoromethylphenyl)-3,5,7-trihydroxy-6,8-di(3-methyl-2-buten-1-yl)-4H-benzopyran-4-one]
